Measurements: patent US12043600B2, “Microbiocidal compounds” (SYNGENTA CROP PROTECTION AG, priority 2018, dated 2024)

Experiments:
[1] = test system: Mycosphaerella graminicola (Septoria tritici); test: Mycosphaerella graminicola (Septoria tritici)/Liquid Culture (Septoria Blotch); assay type: cell-based; conditions: Zymoseptoria tritici; 20 ppm; liquid culture; compared to untreated control
Outline: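 Conidia from cryogenic storage mixed into potato dextrose broth and added to microtiter wells already holding DMSO solutions of test compound. Activity expressed as percentage disease control.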

[2] = test system: Plasmopara viticola; test: whole plant or invertebrate; assay type: in vivo; conditions: foliar, read-out: control of Plasmopara viticola
[3] = test system: Mycosphaerella arachidis (Cercospora arachidicola); test: Mycosphaerella arachidis (Cercospora arachidicola)/Liquid Culture (Early Leaf Spot); assay type: cell-based; conditions: liquid culture, compared to untreated control
Outline: (§1)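 Conidia from cryogenic storage were mixed directly into potato dextrose broth, then added to microtiter wells already holding the test compound dissolved in DMSO. Fungal growth in liquid culture was then assessed.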

[4] = test system: Botryotinia fuckeliana (Botrytis cinerea); test: Botryotinia fuckeliana (Botrytis cinerea)/Liquid Culture (Gray Mould); assay type: cell-based; conditions: liquid culture, compared to untreated control
Protocol: Conidia of the fungus from cryogenic storage are directly mixed into nutrient broth (Vogels broth). After placing a (DMSO) solution of test compound into a microtiter plate (96-well format), the nutrient broth containing the fungal spores is added.

[5] = test system: Pyrenophora teres; test: Pyrenophora teres/Barley/Leaf Disc Preventative (Net Blotch); assay type: in vivo; conditions: foliar, 200 ppm, barley leaf disc preventative, compared to untreated control, read-out: control of Pyrenophora teres
Source text: Barley leaf segments cv. Hasso are placed on agar in a multiwell plate (24-well format) and sprayed with the formulated test compound diluted in water. The leaf segments are inoculated with a spore suspension of the fungus 2 days after application. […] The data are presented as the percentage of disease control of each compound for the biological tests against G. lagenarium (Example B3), P. recondita preventative (Example B13), P. teres (Example B15) and M. graminicola (Example B19) as described above. The testing rates of each biological test is specifically described in table C1 below.

[6] = test system: Puccinia recondita f. sp. tritici; test: Puccinia recondita f. sp. tritici/Wheat/Leaf Disc Preventative (Brown Rust); assay type: in vivo; conditions: foliar, 200 ppm, wheat leaf disc preventative, compared to untreated control, read-out: control of Puccinia recondita f. sp. tritici
[7] = test system: Monographella nivalis (Microdochium nivale); test: Monographella nivalis (Microdochium nivale)/Liquid Culture (Foot Rot Cereals); assay type: cell-based; conditions: liquid culture, compared to untreated control
Outline: as §1

[8] = test system: Phaeosphaeria nodorum (Septoria nodorum); test: Phaeosphaeria nodorum (Septoria nodorum)/Wheat/Leaf Disc Preventative (Glume Blotch); assay type: in vivo; conditions: Parastagonospora nodorum, foliar, wheat leaf disc preventative, compared to untreated control
Outline: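 Wheat cv. Kanzler leaf discs on agar were sprayed with formulated compound diluted in water and inoculated with P. nodorum spores 2 days later. Discs kept at 20 °C, 75% rh, 12 h light/dark; percent disease control versus untreated scored 5–7 days after application.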

[9] = test system: Blumeria graminis f. sp. tritici (Erysiphe graminis f. sp. tritici); test: Blumeria graminis f. sp. tritici/Wheat/Leaf Disc Preventative (Powdery Mildew on Wheat); assay type: in vivo; conditions: foliar, wheat leaf disc preventative, compared to untreated control
Outline: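 Wheat cv. Kanzler leaf segments on agar sprayed with formulated compound, inoculated with powdery mildew 1 day later and held at 20° C, 60% rh (24 h dark, then 12 h light/12 h dark). Percent disease control versus untreated scored 6-8 days after application.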

[10] = test system: Magnaporthe grisea (Pyricularia oryzae); test: whole plant or invertebrate; assay type: in vivo; conditions: foliar, read-out: control of Magnaporthe grisea
[11] = test system: Alternaria solani; test: Alternaria solani/Tomato/Leaf Disc (Early Blight); assay type: in vivo; conditions: foliar, tomato leaf disc, compared to untreated control
Protocol: Tomato leaf disks cv. Baby are placed on agar in multiwell plates (24-well format) and sprayed with the formulated test compound diluted in water. The leaf disks are inoculated with a spore suspension of the fungus 2 days after application. The inoculated leaf disks are incubated at 23° C./21° C. (day/night) and 80% rh (relative humidity) under a light regime of 12/12 h (light/dark) in a climate cabinet and the activity of a compound is assessed as percent disease control compared to untreated when an appropriate level of disease damage appears on untreated check disk leaf disks (5-7 days after application).

[12] = test system: Glomerella lagenarium (Colletotrichum lagenarium); test: Glomerella lagenarium (Colletotrichum lagenarium)/Liquid Culture (Anthracnose); assay type: cell-based; conditions: Colletotrichum orbiculare, liquid culture, compared to untreated control
[13] = test system: Phytophthora infestans; test: whole plant or invertebrate; assay type: in vivo; conditions: in Solanum lycopersicum, foliar, read-out: control of Phytophthora infestans
[14] = test system: Puccinia recondita f. sp. tritici; test: Puccinia recondita f. sp. tritici/Wheat/Leaf Disc Curative (Brown Rust); assay type: in vivo; conditions: foliar, wheat leaf disc curative, compared to untreated control
Outline: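 Curative leaf-disc test on wheat cv. Kanzler segments on agar, spore-inoculated and kept dark at 19° C, 75% rh; formulated compound in water applied 1 day after inoculation. Incubated at 19° C, 75% rh, 12 h light/12 h dark; percent disease control versus untreated scored 6-8 days after application.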

[15] = test system: Phakopsora pachyrhizi; test: Phakopsora pachyrhizi/Soybean/Preventative (Soybean Rust); assay type: in vivo; conditions: foliar, 288 h, 200 ppm, soybean leaf disc preventative, compared to untreated control, read-out: control of Phakopsora pachyrhizi

SMILES	inhibition of growth at 20 ppm [1] [%]	pest or weed control at 200 ppm [2] [%]	inhibition of growth at 20 ppm [3] [%]	inhibition of growth at 20 ppm [4] [%]	melting point [°C]	pest or weed control at 200 ppm [5] [%]	pest or weed control at 200 ppm [6] [%]	inhibition of growth at 20 ppm [7] [%]	pest or weed control at 200 ppm [8] [%]	pest or weed control at 200 ppm [9] [%]	pest or weed control at 200 ppm [10] [%]	pest or weed control at 200 ppm [11] [%]	inhibition of growth at 20 ppm [12] [%]	pest or weed control at 200 ppm [13] [%]	pest or weed control at 200 ppm [14] [%]	pest or weed control at 200 ppm [15] [%]
CO/C=C(\Oc1cc(-n2cc(C)c(C(F)(F)F)n2)ccc1C)C(=O)OC [Compound E-75, methyl (Z)-3-methoxy-2-[2-methyl-5-[4-methyl-3-(trifluoromethyl)pyrazol-1-yl]phenoxy]prop-2-enoate]	≥ 80	≥ 80	≥ 80	≥ 80	131 to 134	≥ 80	≥ 80	≥ 80	≥ 80	≥ 80	–	–	–	–	–	–
CO/C=C(\Oc1cc(-n2cc(C)c(C3CCCCC3)n2)ccc1C)C(=O)OC [Compound E-113, methyl (Z)-2-[5-(3-cyclohexyl-4-methyl-pyrazol-1-yl)-2-methyl-phenoxy]-3-methoxy-prop-2-enoate]	≥ 80	≥ 80	≥ 80	–	145 to 148	–	≥ 80	≥ 80	≥ 80	–	≥ 80	≥ 80	≥ 80	≥ 80	–	–
CO/C=C(\Oc1cc(-n2ccc(C)n2)c(C)cc1C)C(=O)OC [Compound E-17, methyl (Z)-2-[2,4-dimethyl-5-(3-methylpyrazol-1-yl)phenoxy]-3-methoxy-prop-2-enoate]	≥ 80	–	≥ 80	–	123 to 124	–	≥ 80	≥ 80	–	≥ 80	–	≥ 80	–	–	≥ 80	–
CO/C=C(\Oc1cc(-n2ccc(C)n2)c(F)cc1C)C(=O)OC [Compound E-64, methyl (Z)-2-[4-fluoro-2-methyl-5-(3-methylpyrazol-1-yl)phenoxy]-3-methoxy-prop-2-enoate]	≥ 80	≥ 80	≥ 80	≥ 80	134 to 138	–	–	≥ 80	–	≥ 80	≥ 80	≥ 80	≥ 80	–	≥ 80	≥ 50
CO/C=C(\Oc1cc(-n2ccc(C(F)(F)F)n2)c(C)cc1C)C(=O)OC [Compound E-16, methyl (Z)-2-[2,4-dimethyl-5-[3-(trifluoromethyl)pyrazol-1-yl]phenoxy]-3-methoxy-prop-2-enoate]	≥ 80	–	≥ 80	≥ 80	96 to 98	–	≥ 80	≥ 80	–	≥ 80	–	≥ 80	≥ 80	–	≥ 80	–
CO/C=C(\Oc1cc(-n2ccc(Cl)n2)ccc1Br)C(=O)OC [Compound E-85, methyl (Z)-2-[2-bromo-5-(3-chloropyrazol-1-yl)phenoxy]-3-methoxy-prop-2-enoate]	≥ 80	≥ 80	≥ 80	≥ 80	–	–	≥ 80	≥ 80	≥ 80	≥ 80	≥ 80	≥ 80	≥ 80	–	–	≥ 50
CO/C=C(\Oc1cc(-n2ccc(C(F)(F)F)n2)c(Cl)cc1C)C(=O)OC [Compound E-27, methyl (Z)-2-[4-chloro-2-methyl-5-[3-(trifluoromethyl)pyrazol-1-yl]phenoxy]-3-methoxy-prop-2-enoate]	≥ 80	≥ 80	≥ 80	–	–	–	≥ 80	≥ 80	–	≥ 80	≥ 80	≥ 80	≥ 80	–	≥ 80	≥ 50
CO/C=C(\Oc1cccc(-n2ccc(C(F)(F)F)n2)c1)C(=O)OC [Compound E-15, methyl (Z)-3-methoxy-2-[3-[3-(trifluoromethyl)pyrazol-1-yl]phenoxy]prop-2-enoate]	≥ 80	–	≥ 80	–	–	–	≥ 80	≥ 80	–	≥ 80	–	≥ 80	≥ 80	–	≥ 80	–
CO/C=C(\Oc1cc(-n2ccc(C3CC3)n2)ccc1Cl)C(=O)OC [Compound E-99, methyl (Z)-2-[2-chloro-5-(3-cyclopropylpyrazol-1-yl)phenoxy]-3-methoxy-prop-2-enoate]	≥ 80	≥ 80	≥ 80	≥ 80	–	–	≥ 80	≥ 80	≥ 80	≥ 80	≥ 80	≥ 80	≥ 80	≥ 80	≥ 80	≥ 50
CO/C=C(\Oc1cc(-n2cc(C(F)(F)F)cn2)ccc1C)C(=O)OC [Compound E-81, methyl (Z)-3-methoxy-2-[2-methyl-5-[4-(trifluoromethyl)pyrazol-1-yl]phenoxy]prop-2-enoate]	≥ 80	≥ 80	≥ 80	≥ 80	102 to 105	≥ 80	≥ 80	≥ 80	≥ 80	≥ 80	≥ 80	–	≥ 80	≥ 80	–	≥ 50
CO/C=C(\Oc1cc(-n2cc(Cl)cn2)ccc1C)C(=O)OC [Compound E-54, methyl (Z)-2-[5-(4-chloropyrazol-1-yl)-2-methyl-phenoxy]-3-methoxy-prop-2-enoate]	≥ 80	≥ 80	≥ 80	≥ 80	–	≥ 80	≥ 80	≥ 80	≥ 80	≥ 80	–	–	≥ 80	≥ 80	–	–
